This is an account of results in article PMC5442318, “Hundreds of dual-stage antimalarial molecules discovered by a functional gametocyte screen” (Nature Communications, 2017).

For test [1], the system named is P. falciparum stage V female gametocytes. Nature of the test: P. falciparum female gametocyte activation assay (Pf FGAA), 24 h or 48 h preincubation, Pfs25 expression readout. It is filed as cell-based, Plasmodium falciparum NF54. To be noted: for Biological profile: Pf FGAA with 48 h, 24 h or post-activation addition, active = IC50 below 2 μM; for IC50 / pIC50: Plasmodium falciparum; for Pf FGAA classification: SLOW / FAST / GAMETE from activity at 48h, 24h, 0h incubation. The gist of the method:
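Female activation, triggered by xanthurenic acid and cooling, was scored by imaging Cy3-labelled anti-Pfs25 female gametes after 24 h at 26 °C. Beforehand, purified NF54 stage V gametocytes had been incubated with compound for either 24 h or 48 h (37 °C, 3% O2). Values are pIC50 from full-curve regression.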

The test system of test [2] is P. falciparum stages IV–V gametocytes. Briefly: Gametocytocidal ATP-depletion assay (gametocyte ATP bioluminescence). To be noted: Plasmodium falciparum, mean. It counts as cell-based, Plasmodium falciparum. The gist of the method: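 Read-out is luciferase luminescence of parasite ATP (BacTiter-Glo), standing in for viability. Double-purified mature stage IV–V gametocytes, 12,500 per well, were exposed 48 h at 37 °C in low-O2 gas; screening concentration 2 μM.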

Test [3] deals with P. falciparum asexual blood stages. To be noted: ref 1 (Gamo, F. J. et al., Nature 465, 305-310, 2010), cited from earlier work; for pIC50: TCAMS asexual blood stage data, read-out: Pf Asexual blood stages XC50; for Pf Asexual stages XC50: TCAMS data.
[4] abbreviates: 24h incubation time, read-out: Pf FGAA IC50 (µM) 24h.
Setting [5] is: stage V gametocytes, 48 h exposure, read-out: PfFGAA IC50.

pIC50: −log10 of the molar value. Read-outs that look alike come from different tables or passages of the source.

As a reminder, the IC50 is the midpoint of a concentration-inhibition curve. A word on the inhibition: it is the drop in the measured response relative to a control, in per cent. For the compound `FC(F)(F)c1cnc(Sc2nnc(-c3ccncc3)o2)c(Cl)c1` [TCMDC-123767], in test [1], the Biological profile result is “Slow-acting” and the “Pf FGAA classification” value is “SLOW”. Moreover, the IC50 in test [1] (setting [4]) was greater than 20 µM. For the same compound, in test [1] (setting [5]), the pIC50 is 6.80. Besides, in test [2], the inhibition at 2 µM is -5.49%. Besides, in test [3], the pIC50 was 6.57 and the “Pf Asexual stages XC50” value is reported as 0.27 µM.
Take `CC(C)(CNC(=O)[C@H]1CCCCN1)c1nc(-c2ccc(Cl)c(O)c2)c(-c2ccncc2)[nH]1` [TCMDC-141070]: in test [1], the Biological profile result is “Gamete-targeting” and the “Pf FGAA classification” value was “GAMETE”. Moreover, the IC50 in test [1] (setting [4]) was 1.68 µM. Moreover, the pIC50 in test [1] (setting [5]) was 6.28. In addition, the inhibition at 2 µM in test [2] is -0.73%. In test [3], the pIC50 is 6.14 and the “Pf Asexual stages XC50” value was 0.73 µM.
Regarding `CC1Cc2ccccc2N1S(=O)(=O)c1cccc(C(=O)Nc2nc(-c3ccccn3)cs2)c1` (centres unmarked) [TCMDC-124559], the Biological profile entry in test [1] was “Fast-acting”. Also, the pIC50 in test [1] (P. falciparum female gametocytes, mean, read-out: Gametocytes mean Pf FGAA IC50) was 6.47; in test [1] (setting [5]) it was 6.30; in test [3], 5.88. Besides, the “Pf FGAA classification” value in test [1] is reported as “FAST”. The inhibition at 2 µM in test [2] was 8.95%. For the same compound, the “Pf Asexual stages XC50” value in test [3] is 1.32 µM.
Consider `COc1cc(OC)cc(C(=O)Nc2nc(-c3ccccn3)cs2)c1` [TCMDC-125345], for which, in test [1], the Biological profile result was “Fast-acting” and the “Pf FGAA classification” value is given as “FAST”. Besides, in test [1] (setting [4]), the IC50 worked out at 0.96 µM. The pIC50 in test [1] (setting [5]) is 6.44. For the same compound, the inhibition at 2 µM in test [2] came out at 39.5%. Moreover, in test [3], the pIC50 is 6.25 and the “Pf Asexual stages XC50” value is 0.56 µM.
Consider `NCC1(c2nc(-c3ccc(Cl)c(O)c3)c(-c3ccncc3)[nH]2)CCCCC1` [TCMDC-141154], for which, in test [1], the Biological profile result is listed as “Gamete-targeting” and the “Pf FGAA classification” value was “GAMETE”. For the same compound, the half-inhibitory concentration (IC50) in test [1] (setting [4]) was found to be 0.41 µM. In addition, the pIC50 in test [1] (setting [5]) was 6.68. Further, the inhibition at 2 µM in test [2] is -10.5%. In addition, in test [3], the pIC50 is 6.13 and the “Pf Asexual stages XC50” value is 0.53 µM.
`Cc1ccc(Cn2nc(Cl)c(N3CCNCC3)cc2=O)cc1NC(=O)Nc1ccc(-c2ccccc2)cc1` [TCMDC-141698]: the Biological profile entry in test [1] is recorded as “Gamete-targeting”. Besides, the concentration for half-maximal inhibition (IC50) in test [1] (setting [4]) was 0.44 µM; in test [1] (48h incubation time, read-out: Pf FGAA IC50 (µM) 48h), 0.44 µM. Besides, the pIC50 in test [1] (mean, P. falciparum female gametocyte activation assay, read-out: Gametocytes mean Pf FGAA IC50) is 6.36; in test [1] (setting [5]) it was 6.36; in test [3], 6.17. For the same compound, in test [1], the “Pf FGAA classification” value was “GAMETE”. Further, in test [2], the inhibition at 2 µM is -7.4%. Moreover, in test [3], the “Pf Asexual stages XC50” value is 0.67 µM.
